According to article PMC8631740 (Nano Letters, 2021):

Biological target: PDZ-mNG (Homo sapiens, UniProt Q96RT1)
Assay: Binding kinetics of PDZ-mNG to peptDTWV in fixed COS7 cells
Type: cell-based
Settings: PFA or PFA/GA fixation, compared with kinetics at nanoparticles; result in words

## RGSIDTWV-cooh [peptDTWV]
  effect of fixation on peptDTWV/PDZ-mNG interaction: not affected by fixation
